Holding throughout (type): cell-based
One assay concerns EGF. The experiment in a line: SRE-luciferase antagonist assay, induction by EGF. Conditions: SWISS3T3 cells, 5 hours. The source says:
(§1) Initial characterization of NNC92-0270 as a non-peptide PDGF antagonist was made possible through an SRE-Luciferase high through-put assay system which involves selection of substances that are able to block expression of a serum response element (SRE)-luciferase reporter gene expressed in SWISS3T3 cells. […] The degree of antagonist specificity can be determined by comparing the resultant signal for the three growth factors (PDGF, bFGF and EGF). […]
(§2) Following induction, luciferase activity was measured using a Promega luciferase assay kit (E1500; Promega Corp., Madison, Wis.) according to the assay kit protocol. […] The amount of luminescence (relative light units, RLU) was determined following a 1 second mix and a 1-3 integration of signal. Basal (uninduced) luciferase signal was subtracted from all measurements, and the luciferase signal induced by test samples was expressed as a percentage of the signal in the control. […]

Assay [1] concerns baboon smooth muscle cells. The experiment in a line: Wash-out study of PDGF-BB mitogenic activity on baboon smooth muscle cells. To be noted: mean +/- SD. The procedure:
NNC92-0270 was analyzed for prolonged inhibitory effect on PDGF-BB mitogenic activity on baboon smooth muscle cells in a wash-out experiment. Baboon SMCs were plated at 20,000 cells per well in a 24-well culture dish and grown for 2 days. The culture media was removed and replaced with Mito Media (Table 5) to allow the cells to become quiescent. The experiment was set up such that cells were treated with NNC92-0270 or vehicle control (0.5% DMSO) for either 24 hours prior to the addition of PDGF-BB, or sequentially with the addition of PDGF-BB. Those cells initially treated with NNC92-0270 or control vehicle for 24 hours, were washed with Mito Media to remove the test compound and then incubated with PDGF-BB (1 ng/ml) for an additional 24 hours. A second set of cells was treated with NNC92-0270 or vehicle control simultaneously with PDGF-BB for 24 hours. The cells were pulse labeled for 4 hours with [^3 H] thymidine (1 μCi/ml final) harvested with trypsin and counted in a Wallac Betaplate counter to determine CPM for [^3 H] thymidine incorporation.
Acetic acid (10 mM) was used as the PDGF-BB vehicle control and 0.5% DMSO was used as the test compound control.

Another assay relates to PDGF. Description: SRE-luciferase antagonist assay, induction by PDGF. To be noted: Swiss-3T3, SWISS3T3 cells, 5 hours, approximate.
Text: as §1, §2

The values below come from US5731326A, “PDGF antagonists II” (ZymoGenetics, Inc., priority 1996, dated 1998).

Turning to `O=C(NN1CCCCC1)NS(=O)(=O)c1ccc(CCNC(=O)c2[nH]c3ccccc3c2OCc2ccccc2)cc1` [NNC92-0270], in the assay with EGF, the “Induction of SRE-luciferase, EGF IC50” value is recorded as “No activity”. For the same compound, the “[3H] Thymidine Incorporation (cpm)” value in assay [1] (T = -24 hrs 0.5% DMSO, T = 0 hrs compound simultaneously with PDGF-BB (1 ng/ml)) is listed as 678 +/- 68 cpm; in assay [1] (T = -24 hrs compound, washed out, T = 0 hrs PDGF-BB (1 ng/ml)) it was 5735 +/- 474 cpm; in assay [1] (T = -24 hrs compound, washed out, T = 0 hrs acetic acid (no PDGF-BB)), 237 +/- 36 cpm. This compound also came in with an IC50 with PDGF of 13 µM.

Broadly, the IC50 is the concentration at which inhibition is half-maximal. Read a low IC50 as inhibition by little substance.
